# Data from patent US20090298903A1, “USE OF TETRAMIC ACID DERIVATIVES FOR INSECT CONTROL” (priority 2006, published 2009).
# Tests used:
# Type in all cases: in vivo
# Pegomya spp. = experiment: Example 17: winter wheat against Pegomya spp.; details: 3 days after the last of two treatments (interval 7 days), larvae, Thiacloprid (240 OD) 72, (I-4) (240 SC + 0.2% rapeseed oil methyl ester) 96 g a.s./ha
# Method: Plots approx. 25 m^2 in size which are planted with winter wheat cv. “Capfern” are treated, in four replications, against Pegomya spp. The application is carried out with a knapsack sprayer which is operated with pressurized air. Here, the active substance Example (I-4) (240 SC), in a tank mix with 0.2% a.s. rapeseed oil methyl ester (500 EW) and the commercial standard Thiacloprid (240 OD), is tested at the specified application rates. Two applications are carried out at an interval of 7 days. The water application rate is 350 l/ha.
# (§1) The test is evaluated 3 days after the last treatment by scoring the destruction rate of the larvae on the plants.
# [1] = system: apple capsid bug (Plesiocoris rugicollis); experiment: Example 1B: apple trees against apple capsid bug; details: 37 d after treatment, larvae on twigs, Deltamethrin (EC 025) 3.75, (I-4) (150 OD) 30 g a.s./ha/m crown level
# Method: Apple trees cv. “Holsteiner Cox” which are approximately 14 years old are treated, in 3 replications, against the apple capsid bug (Plesiocoris rugicollis). Here, the active substance Example (I-4) (150 OD) is tested at the specified application rate against the commercial standard Deltamethrin liquid (EC 025) at the specified application rate. The application is carried out with a knapsack sprayer. Here, the treatment is effected with a water application rate of 500 l/ha/m crown level.
# The test is evaluated 37 days after the treatment by scoring the destruction of the larvae on the twigs with the aid of the Abbott method.
# Dacus ciliatus = experiment: Example 22A: bottle gourds against Dacus ciliatus
# Method: Plots approx. 10 m^2 in size which are planted with bottle gourds cv. “Waltham” are treated, in three replications, against Dacus ciliatus. The application is carried out with a motor-operated knapsack sprayer. Here, the active substance Example (I-4) (150 OD) and the commercial standard Fenthion (500 EC) are tested at the specified application rates. Three applications are carried out at in each case an interval of 7 days. The water application rate is approx. 500 l/ha.
# The test is evaluated 8, 14 and 21 days after treatment 1 by scoring the infestation of the fruits.
# Thrips tabaci = experiment: Example 11: dwarf beans against Thrips tabaci
# Method: Plots approx. 26 m^2 in size which are planted with dwarf beans are treated 16 days after emergence against Thrips tabaci, in four replications. The application is carried out with a knapsack sprayer which is operated with pressurized air. Here, the active substances Example (I-2) (240 SC) (I-4) (240 SC) and Example (I-9) (240 SC), in a tank mix with 0.1% a.s. rapeseed oil methyl ester (500 EW), are tested against the commercial standard Profenofos (720 EC) at the specified application rates. The water application rate is 1000 l/ha. Two applications are carried out at an interval of 10 days.
# The test is evaluated 5 and 11 days after the first treatment by scoring the destruction rate of the nymphs on the leaves.
# Lema melanopa = experiment: Example 25: winter wheat against Lema melanopa; details: 3 days after the last of two treatments (interval 7 days), larvae, Calypso (240 OD) 72, (I-4) (240 SC + 0.2% rapeseed oil methyl ester) 96 g a.s./ha
# Method: Plots approx. 25 m^2 in size which are planted with winter wheat cv. “Capfem” are treated, in four replications, against Lema melanopa. The application is carried out with a knapsack sprayer which is operated with pressurized air. Here, the active substance Example (I-4) (240 SC), in a tank mix together with 0.2% a.s. rapeseed oil methyl ester (500 EW) and the commercial standard Calypso (240 OD), is applied at the specified application rates. Two applications are carried out at an interval of 7 days, with a water application rate of 350 l/ha.
# as §1
# Empoasca onukui = experiment: Example 15: tea plants against Empoasca onukui; details: larvae on shoots
# Method: Plots approx. 4 m^2 in size which are planted with tea plants cv. “Yabukita” are treated, in three replications, against Empoasca onukui. The application is carried out with a knapsack sprayer which is operated with pressurized air. Here, the active substance Example (I-4) (150 OD) is tested against the commercial standard Admire (10 WP) at the specified application rates. The water application rate is 10 000 l/ha.
# The test is evaluated 15 and 29 days after the treatment by scoring the destruction rate of the larvae in percent on the shoots.
# Carpocapsa pomonella = experiment: Example 29: apple trees against Carpocapsa pomonella, fruit damage; details: application rate printed as g a.s./ha: Chlorpyrifos-methyl (25 WP) 0.1, (I-4) (240 SC + 0.1% Steffes Mero) 0.012
# Method: Approx. 15-year-old apple trees cv. “Golden Delicious” are treated, in four replications, against Carpocapsa pomonella. The application is carried out with an atomizer. Here, the active substance Example (I-4) (240 SC) in a tank mix together with 0.1% a.s. of the adjuvant Steffes Mero (rapeseed oil methyl ester) (733 1R) and the commercial standard Chlorpyrifos-methyl (25 WP) are tested at the specified application rates. The water application rate is 1052 l/ha. Two applications are carried out at an interval of 13 days.
# The test is evaluated 32 days after treatment 2 by scoring the fruit damage with the aid of the Abbott formula.
# Dasineura pyri = experiment: Example 19b): pear trees against Dasineura pyri; details: 9 d after treatment 2, larvae in rolled leaves
# Method: Fully-grown pear trees cv. “Conference” of crown height approx. 3.5 m are treated, in four replications, against Dasineura pyri. Here, the active substance Example (I-4) is tested as (150 OD) and (240 SC) together with 0.1% a.s. rapeseed oil methyl ester (Mero 733 1R) in a tank mix at the specified application rate against the commercial standard Endosulfan (350 EC) at the specified application rate. The application is carried out with a spray diffuser. Here, the treatment is effected with a water application rate of 1000 l/ha/m crown level. Two applications are carried out at an interval of 7 days.
# The test is evaluated 9 days after treatment 2 by scoring the destruction rate of the larvae in the rolled leaves, using the Abbott method.
structure (smiles),measurement,setting,value
CCOC(=O)OC1=C(c2cc(C)ccc2C)C(=O)N[C@]12CC[C@@H](OC)CC2 [Example (I-4)],Efficacy (% Abbott) 10 d,Pegomya spp.,100 % Abbott
same,Efficacy (%) Abbott 37 d,[1],96%
same,Efficacy (% Abbott) 8 d,"Dacus ciliatus; 8 d after treatment 1, infestation of fruits, Fenthion (500 EC) 300, (I-4) (150 OD) 200 g a.s./ha, three applications, 7-day intervals",59.5 % Abbott
same,Efficacy (% Abbott) 14 d,"Dacus ciliatus; 14 d after treatment 1, Fenthion 300, (I-4) 200 g a.s./ha",48.9 % Abbott
same,Efficacy (% Abbott) 21 d,"Dacus ciliatus; 21 d after treatment 1, Fenthion 300, (I-4) 200 g a.s./ha",44.5 % Abbott
same,Efficacy (% Abbott) 5 d,"Thrips tabaci; 5 d after first treatment, nymphs on leaves, Profenofos (720 EC) 1300, (I-9) 54, (I-2) 54, (I-4) 60 g a.s./ha, 240 SC + 0.1% rapeseed oil methyl ester",60 % Abbott
same,Efficacy (% Abbott) 11 d,"Thrips tabaci; 11 d after first treatment (second application at 10 days), Profenofos 1300, (I-9) 54, (I-2) 54, (I-4) 60 g a.s./ha",90 % Abbott
same,Efficacy (% Abbott) 10 d,Lema melanopa,82.1 % Abbott
same,Efficacy (% Abbott) 15 d,"Empoasca onukui; 15 d after treatment, Admire (10 WP) 0.005 % a.s., (I-4) (150 OD) 0.01 % a.s.",73 % Abbott
same,Efficacy (% Abbott) 29 d,"Empoasca onukui; 29 d after treatment, Admire 0.005 % a.s., (I-4) 0.01 % a.s.",78.8 % Abbott
same,Efficacy (% Abbott) 32 d after treatment 2,Carpocapsa pomonella,73.7 % Abbott
same,Efficacy (% Abbott) 9 d,"Dasineura pyri; (I-4) as 150 OD, 150 g a.s./ha/m crown level",100 % Abbott
same,Efficacy (% Abbott) 9 d,"Dasineura pyri; Endosulfan (350 EC) 472.5, (I-4) as 240 SC + Mero (0.1% rapeseed oil methyl ester) 120 g a.s./ha/m crown level",94.6 % Abbott
